Source: patent publication US9096559B2, “4-carboxybenzylamino derivatives as histone deacetylase inhibitors” (Merck Sharp & Dohme Corp., priority 2007, dated 2015)

molecular target: histone deacetylase, subtype 1 (HDAC1) (Homo sapiens (Human), UniProt Q13547); experiment: HDAC1-Flag in vitro deacetylation assay; assay type: biochemical; conditions: IP = inflection point; read-out: HDAC1 IP (inflection point)
Description: Novel compounds were tested for their ability to inhibit histone deacetylase, subtype 1 (HDAC1) using an in vitro deacetylation assay. The enzyme source for this assay was an epitope-tagged human HDAC1 complex immuno-purified from stably expressing mammalian cells. The substrate consisted of a commercial product containing an acetylated lysine side chain (BIOMOL Research Laboratories, Inc., Plymouth Meeting, Pa.). Upon deacetylation of the substrate by incubation with the purified HDAC1 complex, a fluorophore is produced that is directly proportional to the level of deacetylation.

Chain of histone deacetylase, subtype 1 (HDAC1) (Q13547 whole entry): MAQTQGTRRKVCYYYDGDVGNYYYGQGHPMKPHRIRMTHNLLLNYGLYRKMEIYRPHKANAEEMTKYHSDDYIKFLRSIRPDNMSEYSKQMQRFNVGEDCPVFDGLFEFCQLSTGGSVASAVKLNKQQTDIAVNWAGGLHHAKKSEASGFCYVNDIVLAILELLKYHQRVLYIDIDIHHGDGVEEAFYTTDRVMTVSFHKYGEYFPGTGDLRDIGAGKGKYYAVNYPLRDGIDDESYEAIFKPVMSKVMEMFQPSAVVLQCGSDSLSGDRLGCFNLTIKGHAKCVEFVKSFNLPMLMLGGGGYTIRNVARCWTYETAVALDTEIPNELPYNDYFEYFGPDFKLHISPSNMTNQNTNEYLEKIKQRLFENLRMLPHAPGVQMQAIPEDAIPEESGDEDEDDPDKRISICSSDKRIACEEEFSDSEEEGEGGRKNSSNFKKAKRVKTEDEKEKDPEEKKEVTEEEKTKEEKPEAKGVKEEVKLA

SMILES | IC50 [nM]
CN(Cc1ccc(C(=O)Nc2cc(-c3ccccc3)ccc2O)cc1)Cc1cnccn1 [Example 113, N-(4-hydroxy-3-biphenylyl)-4-{[methyl(2-pyrazinylmethyl)amino]methyl}benzamide] | 31
O=C(Nc1cc(-c2ccccc2)ccc1O)c1ccc(CNCc2cccnc2)cc1 [Example 81, N-(4-hydroxy-3-biphenylyl)-4-{[(3-pyridinylmethyl)amino]methyl}benzamide] | 32
CCN(C)Cc1ccc(C(=O)Nc2cc(-c3ccccc3)ccc2O)cc1 [Example 94, 4-{[ethyl(methyl)amino]methyl}-N-(4-hydroxy-3-biphenylyl)benzamide] | 31
O=C(Nc1cc(-c2ccccc2)ccc1O)c1ccc(CNCCCc2ccncc2)cc1 [Example 109, N-(4-hydroxy-3-biphenylyl)-4-({[3-(4-pyridinyl)propyl]amino}methyl)benzamide] | 100
CC(C)CCNCc1ccc(C(=O)Nc2cc(-c3ccccc3)ccc2O)cc1 [Example 92, N-(4-hydroxy-3-biphenylyl)-4-{[(3-methylbutyl)amino]methyl}benzamide] | 100
O=C(Nc1cc(-c2ccccc2)ccc1O)c1ccc(CN2Cc3ccccc3C2)cc1 [Example 95, 4-(1,3-dihydro-2H-isoindol-2-ylmethyl)-N-(4-hydroxy-3-biphenylyl)benzamide] | 27000
O=C(Nc1cc(-c2ccccc2)ccc1O)c1ccc(CN2CCOCC2)cc1 [Example 85, N-(4-hydroxy-3-biphenylyl)-4-(4-morpholinylmethyl)benzamide] | 48
O=C(Nc1cc(-c2ccccc2)ccc1O)c1ccc(CNCCc2ccc(Br)cc2)cc1 [Example 72, 4-({[2-(4-bromophenyl)ethyl]amino}methyl)-N-(4-hydroxy-3-biphenylyl)benzamide] | 1800
Nc1ccc(-c2cccnc2)cc1NC(=O)c1ccc(CNC(=O)OCc2cccnc2)cc1 [Example 3, pyridin-3-ylmethyl[(4-{[(2-amino-5-pyridin-3-ylphenyl)amino]carbonyl}phenyl)methyl]carbamate] | 17
O=C(Nc1cc(-c2ccccc2)ccc1O)c1ccc(CNCCCc2ccccc2)cc1 [Example 89, N-(4-hydroxy-3-biphenylyl)-4-{[(3-phenylpropyl)amino]methyl}benzamide] | 450
CC(C)(C)OC(=O)NCc1ccc(C(=O)Nc2cc(-c3ccccc3)ccc2O)cc1 [Example 7, 1,1-dimethylethyl[(4-{[(4-hydroxybiphenyl-3-yl)amino]carbonyl}phenyl)methyl]carbamate] | 70
O=C(Nc1cc(-c2ccccc2)ccc1O)c1ccc(CNCC2CC2)cc1 [Example 78, 4-{[(cyclopropylmethyl)amino]methyl}-N-(4-hydroxy-3-biphenylyl)benzamide] | 72
O=C(Nc1cc(-c2ccccc2)ccc1O)c1ccc(CNC2Cc3ccccc3C2)cc1 [Example 108, 4-[(2,3-dihydro-1H-inden-2-ylamino)methyl]-N-(4-hydroxy-3-biphenylyl)benzamide] | 160
CCN1CCC(CNCc2ccc(C(=O)Nc3cc(-c4ccccc4)ccc3O)cc2)CC1 [Example 102, 4-({[(1-ethyl-4-piperidinyl)methyl]amino}methyl)-N-(4-hydroxy-3-biphenylyl)benzamide] | 65
CN(Cc1ccc(C(=O)Nc2cc(-c3ccccc3)ccc2O)cc1)Cc1cnn(C)c1 [Example 114, N-(4-hydroxy-3-biphenylyl)-4-({methyl[(1-methyl-1H-pyrazol-4-yl)methyl]amino}methyl)benzamide] | 24
COC(=O)c1ccc(-c2ccc(N)c(NC(=O)c3ccc(CNC(=O)OCc4cccnc4)cc3)c2)cc1 [Example 2, methyl 4′-amino-3′-[({4-[({[(pyridin-3-ylmethyl)oxy]carbonyl}amino)methyl]phenyl}carbonyl)amino]biphenyl-4-carboxylate] | 81
O=C(Nc1cc(-c2ccccc2)ccc1O)c1ccc(CNCCNc2ccccc2)cc1 [Example 97, 4-{[(2-anilinoethyl)amino]methyl}-N-(4-hydroxy-3-biphenylyl)benzamide] | 260
CC1CCN(Cc2ccc(C(=O)Nc3cc(-c4ccccc4)ccc3O)cc2)CC1 [Example 87, N-(4-hydroxy-3-biphenylyl)-4-[(4-methyl-1-piperidinyl)methyl]benzamide] | 220
CN(Cc1ccccc1)Cc1ccc(C(=O)Nc2cc(-c3ccccc3)ccc2O)cc1 [Example 88, 4-{[benzyl(methyl)amino]methyl}-N-(4-hydroxy-3-biphenylyl)benzamide] | 350
O=C(Nc1cc(-c2ccccc2)ccc1O)c1ccc(CNCc2cccs2)cc1 [Example 98, N-(4-hydroxy-3-biphenylyl)-4-{[(2-thienylmethyl)amino]methyl}benzamide] | 2100
NCCNCc1ccc(C(=O)Nc2cc(-c3ccccc3)ccc2O)cc1 [Example 107, 4-{[(2-aminoethyl)amino]methyl}-N-(4-hydroxy-3-biphenylyl)benzamide] | 72

SMILES | IC50 [nM]
O=C(Nc1cc(-c2ccccc2)ccc1O)c1ccc(CNCCCN2CCCC2)cc1 [Example 82, N-(4-hydroxy-3-biphenylyl)-4-({[3-(1-pyrrolidinyl)propyl]amino}methyl)benzamide] | 91
O=C(Nc1cc(-c2ccccc2)ccc1O)c1ccc(CNc2ccccc2)cc1 [Example 76, 4-(anilinomethyl)-N-(4-hydroxy-3-biphenylyl)benzamide] | 89
CN(C)CCNCc1ccc(C(=O)Nc2cc(-c3ccccc3)ccc2O)cc1 [Example 80, 4-({[2-(dimethylamino)ethyl]amino}methyl)-N-(4-hydroxy-3-biphenylyl)benzamide] | 120
O=C(Nc1cc(-c2ccccc2)ccc1O)c1ccc(CNCCc2cccnc2)cc1 [Example 105, N-(4-hydroxy-3-biphenylyl)-4-({[2-(3-pyridinyl)ethyl]amino}methyl)benzamide] | 2500
CN(C)C1CCN(Cc2ccc(C(=O)Nc3cc(-c4ccccc4)ccc3O)cc2)C1 (stereo not drawn) [Example 106, 4-{[3-(dimethylamino)-1-pyrrolidinyl]methyl}-N-(4-hydroxy-3-biphenylyl)benzamide] | 50
CN(Cc1ccc(C(=O)Nc2cc(-c3ccccc3)ccc2O)cc1)C1CCOC1 (stereo not drawn) [Example 112, N-(4-hydroxy-3-biphenylyl)-4-{[methyl(tetrahydro-3-furanyl)amino]methyl}benzamide] | 43
CNCCCN(C)Cc1ccc(C(=O)Nc2cc(-c3ccccc3)ccc2O)cc1 [Example 99, N-(4-hydroxy-3-biphenylyl)-4-({methyl[3-(methylamino)propyl]amino}methyl)benzamide] | 18
CC(C)NCCNCc1ccc(C(=O)Nc2cc(-c3ccccc3)ccc2O)cc1 [Example 91, N-(4-hydroxy-3-biphenylyl)-4-({[2-(isopropylamino)ethyl]amino}methyl)benzamide] | 44
Cc1nc(-c2ccccc2)sc1CNCc1ccc(C(=O)Nc2cc(-c3ccccc3)ccc2O)cc1 [Example 74, N-(4-hydroxy-3-biphenylyl)-4-({[(4-methyl-2-phenyl-1,3-thiazol-5-yl)methyl]amino}methyl)benzamide] | 690
CN(CCc1ccccc1)Cc1ccc(C(=O)Nc2cc(-c3ccccc3)ccc2O)cc1 [Example 93, N-(4-hydroxy-3-biphenylyl)-4-{[methyl(2-phenylethyl)amino]methyl}benzamide] | 340
O=C(Nc1cc(-c2ccccc2)ccc1O)c1ccc(CN2CCCC2c2ccccn2)cc1 (stereo not drawn) [Example 116, N-(4-hydroxy-3-biphenylyl)-4-{[2-(2-pyridinyl)-1-pyrrolidinyl]methyl}benzamide] | 280
O=C(Nc1cc(-c2ccccc2)ccc1O)c1ccc(CNc2ccncc2)cc1 [Example 84, N-(4-hydroxy-3-biphenylyl)-4-[(4-pyridinylamino)methyl]benzamide] | 9.9
O=C(Nc1cc(-c2ccccc2)ccc1O)c1ccc(CNCCc2ccccc2)cc1 [Example 71, N-(4-hydroxy-3-biphenylyl)-4-{[(2-phenylethyl)amino]methyl}benzamide] | 970
NCc1ccc(C(=O)Nc2cc(-c3ccccc3)ccc2O)cc1 [Example 8, 4-(aminomethyl)-N-(4-hydroxybiphenyl-3-yl)benzamide] | 28
CN(CCc1ccncc1)Cc1ccc(C(=O)Nc2cc(-c3ccccc3)ccc2O)cc1 [Example 104, N-(4-hydroxy-3-biphenylyl)-4-({methyl[2-(4-pyridinyl)ethyl]amino}methyl)benzamide] | 33
CN(Cc1ccc(C(=O)Nc2cc(-c3ccccc3)ccc2O)cc1)c1ccncc1 [Example 103, N-(4-hydroxy-3-biphenylyl)-4-{[methyl(4-pyridinyl)amino]methyl}benzamide] | 13
O=C(NCc1ccc(C(=O)Nc2cc(-c3ccccc3)ccc2O)cc1)OCc1cccnc1 [Example 5, pyridin-3-ylmethyl[(4-{[(4-hydroxybiphenyl-3-yl)amino]carbonyl}phenyl)methyl]carbamate] | 20
COc1cccc(CNCc2ccc(C(=O)Nc3cc(-c4ccccc4)ccc3O)cc2)c1 [Example 117, N-(4-hydroxy-3-biphenylyl)-4-{[(3-methoxybenzyl)amino]methyl}benzamide] | 4300
O=C(Nc1cc(-c2ccccc2)ccc1O)c1ccc(CNCCn2cccn2)cc1 [Example 111, N-(4-hydroxy-3-biphenylyl)-4-({[2-(1H-pyrazol-1-yl)ethyl]amino}methyl)benzamide] | 33
CC(C)CNCc1ccc(C(=O)Nc2cc(-c3ccccc3)ccc2O)cc1 [Example 73, N-(4-hydroxy-3-biphenylyl)-4-[(isobutylamino)methyl]benzamide] | 110
O=C(Nc1cc(-c2ccccc2)ccc1O)c1ccc(CNC2CC2)cc1 [Example 75, 4-[(cyclopropylamino)methyl]-N-(4-hydroxy-3-biphenylyl)benzamide] | 76
